Measured values reported in patent US20260262643A1, “HERBICIDAL BENZOXAZINES” (FMC CORPORATION, priority 2022, published 2026).

Assays:
barnyardgrass [1] = test: Test C preemergence; format: in vivo, Echinochloa crusgalli; conditions: 0 to 100 scale (0 no effect, 100 complete control); for Plant response rating, Barnyardgrass: Preemergence, 500 g ai/ha, visual rating after 10 days; for Barnyardgrass plant response rating: Test C, preemergence, 125 g ai/ha
Summary of the method: (§1)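 Visual injury score, 0–100 (100 = complete control), taken 10 days after treatment relative to untreated controls. Pre: directed spray onto soil over sown seeds. Post: foliar spray at one- to two-leaf stage, 2–10 cm. Solvent/surfactant formulation; loam–sand soil; greenhouse.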

blackgrass [2] = test: Test C preemergence; format: in vivo, Alopecurus myosuroides; conditions: 0 to 100 scale (0 no effect, 100 complete control); for Plant response rating, Blackgrass: Preemergence, 500 g ai/ha, visual rating after 10 days; for Blackgrass plant response rating: Test C, preemergence, 125 g ai/ha
Summary of the method: as §1

corn [3] = test: Test C preemergence; format: in vivo, Zea mays; conditions: preemergence, 0 to 100 scale (0 no effect, 100 complete control)
Summary of the method: as §1

green foxtail [4] = test: Test C preemergence; format: in vivo, Setaria viridis; conditions: preemergence, 0 to 100 scale (0 no effect, 100 complete control)
Summary of the method: as §1

kochia [5] = test: Test C preemergence; format: in vivo, Bassia scoparia; conditions: preemergence, 0 to 100 scale (0 no effect, 100 complete control)
Summary of the method: as §1

oat, wild [6] = test: Test C preemergence; format: in vivo, Avena fatua; conditions: preemergence, 0 to 100 scale (0 no effect, 100 complete control)
Summary of the method: as §1

pigweed, palmer [7] = test: Test C preemergence; format: in vivo, Amaranthus palmeri; conditions: preemergence, 0 to 100 scale (0 no effect, 100 complete control)
Summary of the method: as §1

ragweed [8] = test: Test C preemergence; format: in vivo, Ambrosia artemisiifolia; conditions: preemergence, 0 to 100 scale (0 no effect, 100 complete control)
Summary of the method: as §1

ryegrass, Italian [9] = test: Test C preemergence; format: in vivo, Lolium multiflorum; conditions: preemergence, 0 to 100 scale (0 no effect, 100 complete control)
Summary of the method: as §1

soybean [10] = test: Test C preemergence; format: in vivo, Glycine max; conditions: preemergence, 0 to 100 scale (0 no effect, 100 complete control)
Summary of the method: as §1

wheat [11] = test: Test C preemergence; format: in vivo, Triticum aestivum; conditions: preemergence, 0 to 100 scale (0 no effect, 100 complete control)
Summary of the method: as §1

barnyardgrass [12] = test: Test C postemergence; format: in vivo, Echinochloa crusgalli; conditions: 10 days
Summary of the method: as §1

blackgrass [13] = test: Test C postemergence; format: in vivo, Alopecurus myosuroides; conditions: 10 days
Summary of the method: as §1

corn [14] = test: Test C postemergence; format: in vivo, Zea mays; conditions: 10 days
Summary of the method: as §1

green foxtail [15] = test: Test C postemergence; format: in vivo, Setaria viridis; conditions: 10 days
Summary of the method: as §1

kochia [16] = test: Test C postemergence; format: in vivo, Bassia scoparia; conditions: 125 g ai/ha, postemergence, 10 days; 0 to 100 scale, 0 no effect, 100 complete control
Summary of the method: as §1

oat, wild [17] = test: Test C postemergence; format: in vivo, Avena fatua; conditions: 125 g ai/ha, postemergence, 10 days; 0 to 100 scale, 0 no effect, 100 complete control
Summary of the method: as §1

pigweed, palmer [18] = test: Test C postemergence; format: in vivo, Amaranthus palmeri; conditions: 125 g ai/ha, postemergence, 10 days; 0 to 100 scale, 0 no effect, 100 complete control
Summary of the method: as §1

ragweed [19] = test: Test C postemergence; format: in vivo, Ambrosia artemisiifolia; conditions: 125 g ai/ha, postemergence, 10 days; 0 to 100 scale, 0 no effect, 100 complete control
Summary of the method: as §1

ryegrass, Italian [20] = test: Test C postemergence; format: in vivo, Lolium multiflorum; conditions: 125 g ai/ha, postemergence, 10 days; 0 to 100 scale, 0 no effect, 100 complete control
Summary of the method: as §1

soybean [21] = test: Test C postemergence; format: in vivo, Glycine max; conditions: 125 g ai/ha, postemergence, 10 days; 0 to 100 scale, 0 no effect, 100 complete control
Summary of the method: as §1

wheat [22] = test: Test C postemergence; format: in vivo, Triticum aestivum; conditions: 125 g ai/ha, postemergence, 10 days; 0 to 100 scale, 0 no effect, 100 complete control
Summary of the method: as §1

galium = test: Test C postemergence; format: in vivo, Galium aparine; conditions: 10 days
Summary of the method: as §1

horseweed = test: Test C postemergence; format: in vivo, Erigeron canadensis; conditions: 10 days
Summary of the method: as §1

barnyardgrass [23] = test: Test D flooded paddy test; format: in vivo, Echinochloa crus-galli; conditions: 250 g ai/ha, applied to paddy water, visual rating after 13 to 14 days, scale 0 to 100 (0 no effect, 100 complete control)
Summary of the method: (§2)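 Plants at the 2-leaf stage were grown in pots flooded to 3 cm, and compound was applied directly into the paddy water, with depth kept throughout. After 13–14 days in a greenhouse, injury was rated visually against untreated controls on a 0–100 scale (100 = complete control); a dash means not tested.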

ducksalad = test: Test D flooded paddy test; format: in vivo, Heteranthera limosa; conditions: 250 g ai/ha, applied to paddy water, visual rating after 13 to 14 days, scale 0 to 100 (0 no effect, 100 complete control)
Summary of the method: as §2

rice = test: Test D flooded paddy test; format: in vivo, Oryza sativa; conditions: 250 g ai/ha, applied to paddy water, visual rating after 13 to 14 days, scale 0 to 100 (0 no effect, 100 complete control)
Summary of the method: as §2

sedge, umbrella = test: Test D flooded paddy test; format: in vivo, Cyperus difformis; conditions: 250 g ai/ha, applied to paddy water, visual rating after 13 to 14 days, scale 0 to 100 (0 no effect, 100 complete control)
Summary of the method: as §2

[24] = 125 g ai/ha, postemergence, 0 to 100 scale, 0 no effect, 100 complete control
[25] = Postemergence, 500 g ai/ha, visual 0 to 100 scale (0 no effect, 100 complete control)

Cc1ccc(-n2cnc(C3(C)COC3)n2)cc1C(=O)N1C[C@H](C)Oc2c(Cl)cccc21 [Compound 275]
Plant response rating, Barnyardgrass (barnyardgrass [1]): 100 | Barnyardgrass plant response rating (barnyardgrass [1]): 100 | Plant response rating, Blackgrass (blackgrass [2]): 90 | Blackgrass plant response rating (blackgrass [2]): 50 | Corn plant response rating (corn [3]; 500 g ai/ha): 60 | Corn plant response rating (corn [3]; Test C, 125 g ai/ha): 30 | Foxtail, Green plant response rating (green foxtail [4]; 500 g ai/ha): 100 | Foxtail, Green plant response rating (green foxtail [4]; Test C, 125 g ai/ha): 100 | Kochia plant response rating (kochia [5]; 500 g ai/ha): 100 | Kochia plant response rating (kochia [5]; Test C, 125 g ai/ha): 80 | Oat, Wild plant response rating (oat, wild [6]; 500 g ai/ha): 90 | Oat, Wild plant response rating (oat, wild [6]; Test C, 125 g ai/ha): 50 | Pigweed, Palmer plant response rating (pigweed, palmer [7]; 500 g ai/ha): 100 | Pigweed, Palmer plant response rating (pigweed, palmer [7]; Test C, 125 g ai/ha): 100 | Ragweed plant response rating (ragweed [8]; 500 g ai/ha): 80 | Ragweed plant response rating (ragweed [8]; Test C, 125 g ai/ha): 60 | Ryegrass, Italian plant response rating (ryegrass, Italian [9]; 500 g ai/ha): 100 | Ryegrass, Italian plant response rating (ryegrass, Italian [9]; Test C, 125 g ai/ha): 80 | Soybean plant response rating (soybean [10]; 500 g ai/ha): 100 | Soybean plant response rating (soybean [10]; Test C, 125 g ai/ha): 80 | Wheat plant response rating (wheat [11]; 500 g ai/ha): 70 | Wheat plant response rating (wheat [11]; Test C, 125 g ai/ha): 30 | Plant response rating, Barnyardgrass (barnyardgrass [12]; [24]): 50 | Plant response rating, Barnyardgrass (barnyardgrass [12]; [25]): 90 | Plant response rating, Blackgrass (blackgrass [13]; [24]): 80 | Plant response rating, Blackgrass (blackgrass [13]; [25]): 90 | Plant response rating, Corn (corn [14]; [24]): 10 | Plant response rating, Corn (corn [14]; [25]): 90 | Plant response rating, Foxtail, Green (green foxtail [15]; [24]): 70 | Plant response rating, Foxtail, Green (green foxtail [15]; [25]): 90 | Plant response rating, Kochia (kochia [16]): 80 | Plant response rating, Oat, Wild (oat, wild [17]): 60 | Plant response rating, Pigweed, Palmer (pigweed, palmer [18]): 80 | Plant response rating, Ragweed (ragweed [19]): 80 | Plant response rating, Ryegrass, Italian (ryegrass, Italian [20]): 90 | Plant response rating, Soybean (soybean [21]): 100 | Plant response rating, Wheat (wheat [22]): 40 | Plant response rating, Galium (galium; [24]): 100 | Plant response rating, Galium (galium; [25]): 100 | Plant response rating, Horseweed (horseweed; [24]): 60 | Plant response rating, Horseweed (horseweed; [25]): 90 | Plant response rating, Barnyardgrass (Flood) (barnyardgrass [23]): 35 | Plant response rating, Ducksalad (Flood) (ducksalad): 85 | Plant response rating, Rice (Flood) (rice): 10 | Plant response rating, Sedge, Umbrella (Flood) (sedge, umbrella): 95

COC[C@H]1CN(C(=O)c2cc(-n3cnc(C(C)(C)O)n3)ccc2C)c2cccc(Cl)c2O1 [Compound 276]
Plant response rating, Barnyardgrass (barnyardgrass [1]): 100 | Barnyardgrass plant response rating (barnyardgrass [1]): 90 | Plant response rating, Blackgrass (blackgrass [2]): 90 | Blackgrass plant response rating (blackgrass [2]): 90 | Corn plant response rating (corn [3]; 500 g ai/ha): 90 | Corn plant response rating (corn [3]; Test C, 125 g ai/ha): 50 | Foxtail, Green plant response rating (green foxtail [4]; 500 g ai/ha): 100 | Foxtail, Green plant response rating (green foxtail [4]; Test C, 125 g ai/ha): 100 | Kochia plant response rating (kochia [5]; 500 g ai/ha): 90 | Kochia plant response rating (kochia [5]; Test C, 125 g ai/ha): 90 | Oat, Wild plant response rating (oat, wild [6]; 500 g ai/ha): 90 | Oat, Wild plant response rating (oat, wild [6]; Test C, 125 g ai/ha): 80 | Pigweed, Palmer plant response rating (pigweed, palmer [7]; 500 g ai/ha): 100 | Pigweed, Palmer plant response rating (pigweed, palmer [7]; Test C, 125 g ai/ha): 100 | Ragweed plant response rating (ragweed [8]; 500 g ai/ha): 80 | Ragweed plant response rating (ragweed [8]; Test C, 125 g ai/ha): 60 | Ryegrass, Italian plant response rating (ryegrass, Italian [9]; 500 g ai/ha): 90 | Ryegrass, Italian plant response rating (ryegrass, Italian [9]; Test C, 125 g ai/ha): 90 | Soybean plant response rating (soybean [10]; 500 g ai/ha): 100 | Soybean plant response rating (soybean [10]; Test C, 125 g ai/ha): 100 | Wheat plant response rating (wheat [11]; 500 g ai/ha): 90 | Wheat plant response rating (wheat [11]; Test C, 125 g ai/ha): 80 | Plant response rating, Barnyardgrass (barnyardgrass [12]; [24]): 30 | Plant response rating, Barnyardgrass (barnyardgrass [12]; [25]): 90 | Plant response rating, Blackgrass (blackgrass [13]; [24]): 60 | Plant response rating, Blackgrass (blackgrass [13]; [25]): 90 | Plant response rating, Corn (corn [14]; [24]): 50 | Plant response rating, Corn (corn [14]; [25]): 90 | Plant response rating, Foxtail, Green (green foxtail [15]; [24]): 40 | Plant response rating, Foxtail, Green (green foxtail [15]; [25]): 90 | Plant response rating, Kochia (kochia [16]): 70 | Plant response rating, Oat, Wild (oat, wild [17]): 80 | Plant response rating, Pigweed, Palmer (pigweed, palmer [18]): 60 | Plant response rating, Ragweed (ragweed [19]): 60 | Plant response rating, Ryegrass, Italian (ryegrass, Italian [20]): 80 | Plant response rating, Soybean (soybean [21]): 100 | Plant response rating, Wheat (wheat [22]): 60 | Plant response rating, Galium (galium; [24]): 100 | Plant response rating, Galium (galium; [25]): 100 | Plant response rating, Horseweed (horseweed; [24]): 50 | Plant response rating, Horseweed (horseweed; [25]): 40 | Plant response rating, Barnyardgrass (Flood) (barnyardgrass [23]): 35 | Plant response rating, Ducksalad (Flood) (ducksalad): 70 | Plant response rating, Rice (Flood) (rice): 20 | Plant response rating, Sedge, Umbrella (Flood) (sedge, umbrella): 80
